Test system: male rats (Sprague-Dawley from Tuck's)
Test: hypocholesterolaemic and hypotriglyceridaemic effects in rats fed a sucrose-rich semisynthetic diet containing 0.25% cholesterol
Assay type: in vivo
Details: percentage change from control values, compound at 0.1% in diet for 7 days
Experimental: The hypocholesterolaemic and hypotriglyceridaemic effects of 6-amino-9-[(2-hydroxy-3-thiomorpholino)propyl]purine (Compound 1) and 6-amino-9-([2-hydroxy-3-(2,6-cis-dimethylmorpholino)]propyl)-purine (Compound 2) were assessed as follows.
Groups of 8 male rats (Sprague-Dawley from Tuck's) weighing 80-100g were adapted to a sucrose-rich semisynthetic diet containing 0.25% cholesterol by progressive dilution over 7 days of a powdered commercially available diet (Oxoid). Compounds were then added to the semisynthetic diet at the level of 0.1% and these diets were fed for 7 days. The rats were then killed and the serum total cholesterol and triglyceride were measured by a Technicon Auto-Analyser. The results are expressed as percentage change from control values.

Nc1ncnc2c1ncn2CC(O)CN1CCSCC1 (stereo not drawn) [Compound 1, 6-amino-9-[(2-hydroxy-3-thiomorpholino)propyl]-purine]
Liver wt. as % body wt.: +1%
Serum Triglyceride (* = statistically significant): -8 percentage
Serum Cholesterol (serum total cholesterol, * = statistically significant): -57* percentage

— patent EP0052964A1, “Adenine derivatives possessing pharmacological activity” (BEECHAM GROUP PLC, priority 1980, dated 1982)
